Data from ChEMBL document CHEMBL4680155, “One-pot synthesis and molecular docking of some new spiropyranindol-2-one derivatives as immunomodulatory agents and in vitro antimicrobial potential with DNA gyrase inhibitor” (Eur J Med Chem, 2020).
Converted amounts (≈) assume the structure as drawn. The source made the active and inactive calls. The calls are words filed in the database; no cut-off is given here.

Columns and labels:
Aspergillus brasiliensis [1] = assay: Antifungal activity against Aspergillus brasiliensis ATCC 16404 assessed as reduction in bacterial growth incubated for 3 days by paper disk diffusion method; format: functional; settings: ATCC 16404, 72 h, time 3 day
Aspergillus brasiliensis [2] = assay: Fungicidal activity against Aspergillus brasiliensis ATCC 16404 incubated for 72 hrs followed by transferring to freshly prepared broth medium and measured after 24 hrs by broth microdilution assay; format: functional; settings: time 96 hrs
Staphylococcus aureus [3] = assay: Antibacterial activity against Staphylococcus aureus ATCC 29213 assessed as reduction in bacterial growth incubated for 1 day by paper disk diffusion method; format: functional
Enterococcus faecalis [4] = assay: Antibacterial activity against Enterococcus faecalis ATCC 29212 assessed as reduction in bacterial growth incubated for 1 day by paper disk diffusion method; format: functional
Staphylococcus aureus [5] = assay: Antibacterial activity against Staphylococcus aureus ATCC 29213 assessed as diameter of inhibition zone at 0.5 mg/ml incubated for 24 hrs by agar diffusion method; format: functional; settings: for zone of inhibition at 500 µg/mL: read-out: DIZ
Candida albicans [6] = assay: Fungicidal activity against Candida albicans ATCC 10231 incubated for 24 hrs followed by transferring to freshly prepared broth medium and measured after 24 hrs by broth microdilution assay; format: functional; settings: time 48 hrs
Escherichia coli [7] = assay: Antibacterial activity against Escherichia coli ATCC 25922 assessed as reduction in bacterial growth incubated for 1 day by paper disk diffusion method; format: functional
Escherichia coli [8] = assay: Antibacterial activity against Escherichia coli ATCC 25922 assessed as diameter of inhibition zone at 0.5 mg/ml incubated for 24 hrs by agar diffusion method; format: functional; settings: for zone of inhibition at 500 µg/mL: read-out: DIZ
Enterococcus faecalis [9] = assay: Antibacterial activity against Enterococcus faecalis ATCC 29212 assessed as diameter of inhibition zone at 0.5 mg/ml incubated for 24 hrs by agar diffusion method; format: functional; settings: for zone of inhibition at 500 µg/mL: read-out: DIZ
Candida albicans [10] = assay: Antifungal activity against Candida albicans ATCC 10231 assessed as diameter of inhibition zone at 0.5 mg/ml incubated for 24 hrs by agar diffusion method; format: functional; settings: read-out: DIZ
Candida albicans [11] = assay: Antifungal activity against Candida albicans ATCC 10231 assessed as reduction in bacterial growth incubated for 1 day by paper disk diffusion method; format: functional; settings: ATCC 10231, 24 h
Salmonella typhimurium [12] = assay: Antibacterial activity against Salmonella typhi ATCC 6539 assessed as reduction in bacterial growth incubated for 1 day by paper disk diffusion method; format: functional
Salmonella typhimurium [13] = assay: Antibacterial activity against Salmonella typhi ATCC 6539 assessed as diameter of inhibition zone at 0.5 mg/ml incubated for 24 hrs by agar diffusion method; format: functional; settings: for zone of inhibition at 500 µg/mL: Salmonella enterica, read-out: DIZ
Staphylococcus aureus [14] = assay: Bactericidal activity against Staphylococcus aureus ATCC 33591 incubated for 24 hrs followed by transferring to freshly prepared broth medium and measured after 24 hrs by broth microdilution assay; format: functional; settings: time 48 hrs
Pseudomonas aeruginosa [15] = assay: Antibacterial activity against multidrug resistant Pseudomonas aeruginosa ATCC BAA-2111 assessed as reduction in bacterial growth incubated for 1 day by paper disk diffusion method; format: functional; settings: ATCC BAA-2111, 24 h
Staphylococcus aureus [16] = assay: Antibacterial activity against multidrug resistant Staphylococcus aureus ATCC 33591 assessed as reduction in bacterial growth incubated for 1 day by paper disk diffusion method; format: functional; settings: ATCC 33591, 24 h
Pseudomonas aeruginosa [17] = assay: Antibacterial activity against multidrug resistant Pseudomonas aeruginosa ATCC BAA-2111 assessed as diameter of inhibition zone at 0.5 mg/ml incubated for 24 hrs by agar diffusion method; format: functional; settings: read-out: DIZ
Staphylococcus aureus [18] = assay: Antibacterial activity against multidrug resistant Staphylococcus aureus ATCC 43300 assessed as diameter of inhibition zone at 0.5 mg/ml incubated for 24 hrs by agar diffusion method; format: functional; settings: read-out: DIZ
DNA gyrase = DNA gyrase (Staphylococcus aureus, UniProt P0A0K8+P20831); assay: Inhibition of Staphylococcus aureus DNA gyrase using relaxed pBR322 DNA as substrate incubated for 45 mins by agarose gel electrophoresis method; format: protein-complex assay
Sequence of DNA gyrase (P0A0K8 whole entry, the tested form may be a part): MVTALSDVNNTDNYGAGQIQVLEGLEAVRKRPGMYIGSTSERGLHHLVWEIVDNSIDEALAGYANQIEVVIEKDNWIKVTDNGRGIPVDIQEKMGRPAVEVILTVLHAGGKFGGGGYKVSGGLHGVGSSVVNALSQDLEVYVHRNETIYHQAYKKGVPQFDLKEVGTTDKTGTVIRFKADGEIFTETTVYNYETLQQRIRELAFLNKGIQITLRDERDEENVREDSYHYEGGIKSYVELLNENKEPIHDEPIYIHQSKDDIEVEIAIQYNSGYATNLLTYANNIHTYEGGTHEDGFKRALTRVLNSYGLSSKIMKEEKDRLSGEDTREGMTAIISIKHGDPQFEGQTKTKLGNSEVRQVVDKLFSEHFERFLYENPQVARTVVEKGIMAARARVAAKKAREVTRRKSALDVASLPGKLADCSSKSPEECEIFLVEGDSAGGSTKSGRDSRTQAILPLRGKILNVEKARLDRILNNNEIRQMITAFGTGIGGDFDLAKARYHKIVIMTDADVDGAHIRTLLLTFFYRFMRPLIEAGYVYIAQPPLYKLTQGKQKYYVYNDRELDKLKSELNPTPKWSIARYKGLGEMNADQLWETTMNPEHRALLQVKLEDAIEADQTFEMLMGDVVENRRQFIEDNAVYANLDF
Sequence of DNA gyrase (P20831 whole entry, the tested form may be a part): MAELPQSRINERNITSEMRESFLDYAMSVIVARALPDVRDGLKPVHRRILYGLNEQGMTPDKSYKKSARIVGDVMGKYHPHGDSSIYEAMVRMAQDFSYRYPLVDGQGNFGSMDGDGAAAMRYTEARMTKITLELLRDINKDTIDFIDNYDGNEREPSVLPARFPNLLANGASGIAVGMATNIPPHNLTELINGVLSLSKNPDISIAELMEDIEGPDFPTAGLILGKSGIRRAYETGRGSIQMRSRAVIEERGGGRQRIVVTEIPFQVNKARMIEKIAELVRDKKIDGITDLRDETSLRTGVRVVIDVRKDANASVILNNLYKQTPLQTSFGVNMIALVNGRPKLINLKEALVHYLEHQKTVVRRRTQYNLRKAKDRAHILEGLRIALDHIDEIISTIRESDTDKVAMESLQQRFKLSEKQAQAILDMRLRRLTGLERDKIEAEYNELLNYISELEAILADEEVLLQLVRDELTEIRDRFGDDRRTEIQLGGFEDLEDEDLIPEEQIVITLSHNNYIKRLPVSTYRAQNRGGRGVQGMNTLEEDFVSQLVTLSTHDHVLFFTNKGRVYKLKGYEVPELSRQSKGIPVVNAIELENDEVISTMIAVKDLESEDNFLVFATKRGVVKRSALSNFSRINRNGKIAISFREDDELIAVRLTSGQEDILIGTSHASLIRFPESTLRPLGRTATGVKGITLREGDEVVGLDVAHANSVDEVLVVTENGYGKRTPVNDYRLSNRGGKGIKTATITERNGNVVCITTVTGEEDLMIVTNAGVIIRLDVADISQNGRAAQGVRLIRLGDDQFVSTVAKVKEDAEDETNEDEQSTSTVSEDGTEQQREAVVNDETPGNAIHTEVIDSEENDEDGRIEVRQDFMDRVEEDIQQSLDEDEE

Escherichia coli [19] = assay: Antibacterial activity against multidrug resistant Escherichia coli ATCC BAA-196 assessed as diameter of inhibition zone at 0.5 mg/ml incubated for 24 hrs by agar diffusion method; format: functional; settings: read-out: DIZ
Escherichia coli [20] = assay: Antibacterial activity against multidrug resistant Escherichia coli ATCC BAA-196 assessed as reduction in bacterial growth incubated for 1 day by paper disk diffusion method; format: functional; settings: ATCC BAA-196, 24 h
Neutrophil = assay: Immunomodulatory activity in human neutrophils infected with bacteria assessed as increase in bacterial killing by measuring reduced NBT incubated for 30 mins by NBT dye based spectrophotometry; format: functional; set-up: concentration or dose not given beside the values; settings: 0.5 h
Staphylococcus aureus [21] = assay: Bactericidal activity against Staphylococcus aureus ATCC 43300 incubated for 24 hrs followed by transferring to freshly prepared broth medium and measured after 24 hrs by broth microdilution assay; format: functional; settings: time 48 hrs
Staphylococcus aureus [22] = assay: Bactericidal activity against Staphylococcus aureus ATCC 29213 incubated for 24 hrs followed by transferring to freshly prepared broth medium and measured after 24 hrs by broth microdilution assay; format: functional; settings: time 48 hrs
Enterococcus faecalis [23] = assay: Bactericidal activity against Enterococcus faecalis ATCC 29212 incubated for 24 hrs followed by transferring to freshly prepared broth medium and measured after 24 hrs by broth microdilution assay; format: functional; settings: time 48 hrs
Salmonella typhimurium [24] = assay: Bactericidal activity against Salmonella typhi ATCC 6539 incubated for 24 hrs followed by transferring to freshly prepared broth medium and measured after 24 hrs by broth microdilution assay; format: functional, Salmonella enterica subsp. enterica serovar […]; settings: Salmonella enterica, time 48 hrs
Escherichia coli [25] = assay: Bactericidal activity against Escherichia coli ATCC 25922 incubated for 24 hrs followed by transferring to freshly prepared broth medium and measured after 24 hrs by broth microdilution assay; format: functional; settings: time 48 hrs
Staphylococcus aureus [26] = assay: Antibacterial activity against multidrug resistant Staphylococcus aureus ATCC 43300 assessed as reduction in bacterial growth incubated for 1 day by paper disk diffusion method; format: functional; settings: ATCC 43300, 24 h
Pseudomonas aeruginosa [27] = assay: Bactericidal activity against Pseudomonas aeruginosa ATCC BAA-2111 incubated for 24 hrs followed by transferring to freshly prepared broth medium and measured after 24 hrs by broth microdilution assay; format: functional; settings: time 48 hrs
Aspergillus brasiliensis [28] = assay: Antifungal activity against Aspergillus brasiliensis ATCC 16404 assessed as diameter of inhibition zone at 0.5 mg/ml incubated for 72 hrs by agar diffusion method; format: functional; settings: read-out: DIZ
Escherichia coli [29] = assay: Bactericidal activity against Escherichia coli ATCC BAA-196 incubated for 24 hrs followed by transferring to freshly prepared broth medium and measured after 24 hrs by broth microdilution assay; format: functional; settings: time 48 hrs
Staphylococcus aureus [30] = assay: Antibacterial activity against multidrug resistant Staphylococcus aureus ATCC 33591 assessed as diameter of inhibition zone at 0.5 mg/ml incubated for 24 hrs by agar diffusion method; format: functional; settings: read-out: DIZ
[31] = Salmonella enterica subsp. enterica serovar Typhimurium
[32] = Salmonella enterica, ATCC 6539, 24 h

SMILES	MIC (Aspergillus brasiliensis [1])	MFC (Aspergillus brasiliensis [2])	MFC (Candida albicans [6])	zone of inhibition at 500 µg/mL (Candida albicans [10])	MIC (Candida albicans [11])	MBC (Staphylococcus aureus [14])	MIC (Pseudomonas aeruginosa [15])	MIC (Staphylococcus aureus [16])	zone of inhibition at 500 µg/mL (Pseudomonas aeruginosa [17])	MIC (Staphylococcus aureus [3]; ATCC 29213, 24 h)	MIC (Enterococcus faecalis [4]; ATCC 29212, 24 h)	zone of inhibition at 500 µg/mL (Staphylococcus aureus [18])	zone of inhibition at 500 µg/mL (Staphylococcus aureus [5])	MIC (Escherichia coli [7]; ATCC 25922, 24 h)	IC50 (DNA gyrase)	zone of inhibition at 500 µg/mL (Escherichia coli [19])	MIC (Escherichia coli [20])	Activity (Neutrophil)	zone of inhibition at 500 µg/mL (Escherichia coli [8])	MBC (Staphylococcus aureus [21])	also measured
C[C@@H]1[C@H](O)[C@@H](C)/C=C/C=C/C=C/C=C/C=C/C=C/C=C/[C@H](O[C@@H]2O[C@H](C)[C@@H](O)[C@H](N)[C@@H]2O)C[C@@H]2O[C@](O)(C[C@@H](O)C[C@@H](O)[C@H](O)CC[C@@H](O)C[C@@H](O)CC(=O)O[C@H]1C)C[C@H](O)[C@H]2C(=O)O [AMPHOTERICIN B]	31.2 µg/mL (≈ 33.8 µM)	65.6 µg/mL (≈ 71 µM)	34.6 µg/mL (≈ 37.5 µM)	22 mm	15.6 µg/mL (≈ 16.9 µM)	–	–	–	–	–	–	–	–	–	–	–	–	–	–	–	MIC (Staphylococcus aureus [3]): inactive; MIC (Enterococcus faecalis [4]): inactive; diameter of the inhibition zone (DIZ) (Staphylococcus aureus [5]): inactive; MIC (Escherichia coli [7]): inactive; diameter of the inhibition zone (DIZ) (Escherichia coli [8]): inactive; diameter of the inhibition zone (DIZ) (Enterococcus faecalis [9]): inactive; MIC (Salmonella typhimurium [12]; [31]): inactive; diameter of the inhibition zone (DIZ) (Salmonella typhimurium [13]; [31]): inactive
CCOC(=O)C1=C(c2ccccc2)OC(N)=C(C#N)C12C(=O)Nc1ccc(S(=O)(=O)N3CCCCC3)cc12 (configuration not stated)	62.5 µg/mL (≈ 117 µM)	125 µg/mL (≈ 234 µM)	25 µg/mL (≈ 46.8 µM)	22 mm	12.5 µg/mL (≈ 23.4 µM)	3.31 µg/mL (≈ 6.19 µM)	3.9 µg/mL (≈ 7.3 µM)	1.95 µg/mL (≈ 3.65 µM)	24 mm	71.1 µg/mL (≈ 133 µM)	15.6 µg/mL (≈ 29.2 µM)	24 mm	21 mm	15.6 µg/mL (≈ 29.2 µM)	19.8 µM	26 mm	1.57 µg/mL (≈ 2.94 µM)	95.4%	23 mm	2.92 µg/mL (≈ 5.46 µM)	MBC (Staphylococcus aureus [22]): 99.5 µg/mL (≈ 186 µM); MBC (Enterococcus faecalis [23]): 31.2 µg/mL (≈ 58.4 µM); MBC (Salmonella typhimurium [24]): 20.3 µg/mL (≈ 38 µM); MBC (Escherichia coli [25]): 21.9 µg/mL (≈ 40.9 µM); zone of inhibition at 500 µg/mL (Enterococcus faecalis [9]): 24 mm; MIC (Staphylococcus aureus [26]): 1.95 µg/mL (≈ 3.65 µM); MBC (Pseudomonas aeruginosa [27]): 6.24 µg/mL (≈ 11.7 µM); zone of inhibition at 500 µg/mL (Aspergillus brasiliensis [28]): 20 mm; MIC (Salmonella typhimurium [12]; [32]): 15.6 µg/mL (≈ 29.2 µM); MBC (Escherichia coli [29]): 2.35 µg/mL (≈ 4.4 µM); zone of inhibition at 500 µg/mL (Staphylococcus aureus [30]): 25 mm; zone of inhibition at 500 µg/mL (Salmonella typhimurium [13]): 24 mm
CC(=O)C1=C(c2ccccc2)OC(N)=C(C#N)C12C(=O)Nc1ccc(S(=O)(=O)N3CCOCC3)cc12 (configuration not stated)	71.8 µg/mL (≈ 142 µM)	108 µg/mL (≈ 213 µM)	31.2 µg/mL (≈ 61.7 µM)	23 mm	15.6 µg/mL (≈ 30.8 µM)	1.94 µg/mL (≈ 3.83 µM)	4.44 µg/mL (≈ 8.77 µM)	0.97 µg/mL (≈ 1.91 µM)	22 mm	17.8 µg/mL (≈ 35.1 µM)	12.5 µg/mL (≈ 24.7 µM)	25 mm	24 mm	12.5 µg/mL (≈ 24.7 µM)	24.8 µM	23 mm	6.25 µg/mL (≈ 12.3 µM)	123.5%	23 mm	145 µg/mL (≈ 286 µM)	MBC (Staphylococcus aureus [22]): 23.1 µg/mL (≈ 45.6 µM); MBC (Enterococcus faecalis [23]): 20 µg/mL (≈ 39.5 µM); MBC (Salmonella typhimurium [24]): 81.2 µg/mL (≈ 160 µM); MBC (Escherichia coli [25]): 21.2 µg/mL (≈ 42 µM); zone of inhibition at 500 µg/mL (Enterococcus faecalis [9]): 26 mm; MIC (Staphylococcus aureus [26]): 0.97 µg/mL (≈ 1.91 µM); MBC (Pseudomonas aeruginosa [27]): 6.66 µg/mL (≈ 13.1 µM); zone of inhibition at 500 µg/mL (Aspergillus brasiliensis [28]): 20 mm; MIC (Salmonella typhimurium [12]; [32]): 62.5 µg/mL (≈ 123 µM); MBC (Escherichia coli [29]): 5.85 µg/mL (≈ 11.5 µM); zone of inhibition at 500 µg/mL (Staphylococcus aureus [30]): 26 mm; zone of inhibition at 500 µg/mL (Salmonella typhimurium [13]): 22 mm
